Results reported in patent US20090232831A1, “METHODS AND COMPOSITIONS FOR THE TREATMENT OR PREVENTION OF HUMAN IMMUNODEFICIENCY VIRUS INFECTION” (priority 2008, published 2009).

What was measured:
gp120/DC-SIGN-Fc = target: T1, gp120/DC-SIGN-Fc (Homo sapiens, UniProt Q9NNX6); test: gp120/Fc-DC-SIGN competition ELISA; type: binding
T1 construct: fused on or other part: Human IgG Fc fused on as a dimerising and detection handle (detected with anti-human IgG, Fc-gamma-specific antibody)
T1 sequence (Q9NNX6 250-404 limits assumed): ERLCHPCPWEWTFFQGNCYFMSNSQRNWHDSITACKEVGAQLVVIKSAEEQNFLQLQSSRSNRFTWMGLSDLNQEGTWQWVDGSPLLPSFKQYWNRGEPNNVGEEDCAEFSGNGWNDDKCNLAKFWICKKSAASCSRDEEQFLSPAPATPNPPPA
Experimental: It was then determined whether oligomannose dendrons are able to interfere with the binding between gp120 and DC-SIGN, which is likely to be a key step for dendritic cell-mediated CD4 T cell HIV infection. Gp120/Fc-DC-SIGN ELISA was performed, in a similar setting as gp120/2G12 ELISA, to evaluate the inhibition activity of glycodendrons 14 and 17.
Competition ELISA for Fc-DC-SIGN. DC-SIGN competitions were done with 1.5 μg/ml Fc-DC-SIGN as described above with a few modifications since DC-SIGN is a C-type lectin that requires Ca^2+ for binding. A Tris (10 mM, pH7.8) buffer containing NaCl (150 mM), i.e., TBS, replaced PBS in the abovementioned buffers used for coating, blocking and washing. After the initial wash step, CaCl2 (10 mM) was included in the blocking solution and all subsequent incubation and wash buffers until substrate addition. DC-SIGN-Fc binding was detected with an alkaline phosphatase-conjugated goat anti-human IgG, Fcγ-specific, Ab (Jackson ImmunoResearch Laboratories, Inc.) diluted 1:1000.

2G12 complex = test: KD,surf of 2G12 complex on glycan-printed normal-NHS-density slide; type: binding; details: immobilized on normal-NHS-density slide; saturated value
Experimental: To further test its multivalent efficacy, 17 was immobilized onto a normal-NHS-density slide (FIG. 3d) at varying printing concentrations.
Second generation Man9 dendron 17 on normal NHS density slide: Similar procedure as for normal density Man4 slide was used. Derivative of 17 with a linker connecting free amine was used for printing. The printing concentrations are 100, 80, 60, 40, 20, 10, 8, 6, 4, 2, 1, 0.8, 0.6, 0.4, 0.2, 0.1, 0.08, 0.06, 0.04, and 0.02 μM. The KD,surf of 2G12 complex was obtained (see Table 4) as previously described.
Determination of KD,surf of glycodendron 17. The procedure is the same as that disclosed in Liang et al., “Quantitative analysis of carbohydrate-protein interactions using glycan microarrays: determination of surface and solution dissociation constants.” J Am Chem Soc 129:11177-11184 (2007), which is hereby incorporated by reference as if fully disclosed herein.

Molecule | IC50 (gp120/DC-SIGN-Fc) | inhibition activity range (gp120/DC-SIGN-Fc; gp120/Fc-DC-SIGN ELISA) | Kd (2G12 complex)
O=C[C@@H](O)[C@@H](O)[C@H](O)[C@H](O)CO [D-Mannose, reference compound] | 8.5 mM | millimolar range | –
Man9 [Compound 2] | – | – | 0.00083 mM
